Assays:
[1] = tested on: MCF-7 (breast cancer); assay: Antiproliferative assay in vitro, SRB test, MCF-7; format: cell-based, human; conditions: mean ± SD of 3–5 independent experiments, n.a. = no activity in concentration of 5, 25, 125, 625 μM
Protocol: (§1) Established in vitro, human cancer cell lines: MV4-11 (human biphenotypic B myelomonocytic leukaemia), A-549 (non-small cell lung cancer), MCF-7 (breast cancer), LoVo (colon cancer), LoVo/DX (colon cancer drug resistant), HepG2 (liver cancer) and BALB/3T3 (normal mice fibroblasts) were used.
(§2) The leukaemia cell line was cultured in RPMI 1640 medium (IIET, Wroclaw, Poland) with supplemented with 2 mM L-glutamine adjusted to contain 1.0 mM sodium pyruvate, 10% fetal bovine serum (all from Sigma-Aldrich Chemie GmbH, Steinheim, Germany). A549, LoVo and LoVo/DX cells were cultured in the mixture of RPMI 1640+Opti-MEM (1:1) (both from Gibco, Scotland, UK), MCF-7 cells in Eagle medium (IIET, Wroclaw, Poland), HepG2 in DMEM medium (Gibco, Scotland, UK), BALB/3T3 in DMEM medium (IIET, Wroclaw, Poland) supplemented with 2 mM L-glutamine and 1.0 mM sodium pyruvate, 10% fetal bovine serum (all from Sigma-Aldrich, Germany). The MCF-7 cell culture was supplemented with 0.8 mg/L of insulin (Sigma-Aldrich Chemie GmbH, Steinheim, Germany) and the LoVo/DX cell culture was supplemented with 0.1 μg/mL of doxorubicin (Accord). All culture media were supplemented with 100 units/mL penicillin, and 100 μg/mL streptomycin (both from Polfa Tarchomin S.A., Warsaw, Poland). All cell lines were grown at 37°C with 5% CO2 humidified atmosphere.
(§3) Prior to usage, the compounds were dissolved in DMSO or in mixture of 99.8% ethanol and DMSO (1:1) to the concentration of 25 or 50 mM, and subsequently diluted in culture medium to reach the required concentrations (ranging from 5 to 625 μM).
(§4) 24 hours before addition of the tested compounds, the cells were plated in 96-well plates at density of 1×10^4 cells per well. An assay was performed after 72 hours exposure to varying concentrations of the tested agents.
(§5) Cytotoxic test MTT was applied for the cytotoxicity screening against leukaemia cells growing in suspension culture and were carried out according to the method described before. Cytotoxic test SRB was applied against A549, MCF-7, LoVo, LoVo/DX, BALB/3T3 and HepG2 cells and were carried out according to the method described before.
(§6) The results were calculated as an IC50 (inhibitory concentration 50)–the concentration of tested agent, which inhibits proliferation of 50% of the cell population. Each compound in each concentration was tested in triplicate in a single experiment, which was repeated 3–5 times.

[2] = tested on: tested cancer cell lines; assay: Antiproliferative activity compared with free terpene acids, cancer cell line panel; format: cell-based, human; conditions: for antiproliferative activity, fold higher than free acids: compared with free terpene acids; for IC50 values, fold lower than those of free terpene acids 1a, 1b: towards leukaemia, LoVo, LOVO/DX and breast cell lines
Protocol: as §4, §5, §6
The aim of this study was to determine whether a joining the terpenes with PC has impact on their biological activity. Increasing the lipophilicity of active compounds was expected to raise their cytotoxicity. We observed that almost all synthesized compounds were cytotoxic against tested cancer cell lines. […] Upon careful evaluation of data it can be concluded that cytotoxic activity of terpene-modified PCs is depended on the position of terpene moiety in the backbone of PC. […] These compounds stronger than corresponding acids inhibit the proliferation of cancer cells. […] Their IC50 values were more than 9-fold lower than those determined for free terpene acids 1a, 1b towards leukaemia, LoVo, LOVO/DX and breast cell lines. […] Generally, activity of terpene-modified PC increased in the following sequence: 1-isoprenoyl-LPC < diisoprenoyl-PC < monoisoprenoyl-PC.

[3] = tested on: LoVo/DX (colon cancer drug resistant); assay: Antiproliferative assay in vitro, SRB test, LoVo/DX; format: cell-based, human; conditions: 72 hours exposure, doxorubicin-resistant line, mean ± SD of 3–5 independent experiments, n.a. = no activity in concentration of 5, 25, 125, 625 μM
Protocol: as §1, §2, §3, §4, §5, §6

[4] = tested on: LoVo (colon cancer); assay: Antiproliferative assay in vitro, SRB test, LoVo; format: cell-based, human; conditions: 72 hours exposure, mean ± SD of 3–5 independent experiments, n.a. = no activity in concentration of 5, 25, 125, 625 μM
Protocol: as §1, §2, §3, §4, §5, §6

[5] = tested on: drug resistant LOVO/DX line versus drug sensitive LoVo line; assay: Resistance index (RI), LoVo/DX versus LoVo; format: cell-based, human; conditions: RI = IC50 LoVo/DX / IC50 LoVo; 0<RI<2 able to overcome drug resistance; 2<RI<10 moderate ability; RI>10 no influence
Protocol: Using the obtained IC50 values, the resistance indexes (RI) were calculated by dividing the IC50 values of the compounds tested against the cells of drug resistant cell LOVO/DX line by respective values obtained against the cells of drug sensitive LoVo line. According to Harker et al. three categories of the cells could be distinguished: (a) the cells are drug-sensitive—if the ratio approaches 0–2; (b) the cells are moderately drug-resistant—if the ratio ranges from 2 to 10; (c) the cells are markedly drug-resistant—if the ratio is higher than 10.
We calculated also the resistance indexes (RI) by dividing the IC50 values of the compounds tested against the cells of drug resistant cell LoVo/DX by respective values obtained against the drug sensitive LoVo cell line (Table 2). […] Compounds 7a, 7b and 10b have the highest ability to overcome the barrier of resistance (RI = 1.08, 1.06 and 1.09).

[6] = tested on: MV4-11 (human biphenotypic B myelomonocytic leukaemia); assay: Antiproliferative assay in vitro, MTT test, MV4-11; format: cell-based; conditions: mean ± SD of 3–5 independent experiments, n.a. = no activity in concentration of 5, 25, 125, 625 μM
Protocol: as §1, §2, §3, §4, §5, §6

[7] = tested on: A-549 (non-small cell lung cancer); assay: Antiproliferative assay in vitro, SRB test, A-549; format: cell-based, human; conditions: mean ± SD of 3–5 independent experiments, n.a. = no activity in concentration of 5, 25, 125, 625 μM
Protocol: as §1, §2, §3, §4, §5, §6

[8] = tested on: BALB/3T3 (normal mice fibroblasts); assay: Antiproliferative assay in vitro, SRB test, BALB/3T3; format: cell-based; conditions: mean ± SD of 3–5 independent experiments, n.a. = no activity in concentration of 5, 25, 125, 625 μM
Protocol: as §1, §2, §3, §4, §5, §6

[9] = tested on: HepG2 (liver cancer); assay: Antiproliferative assay in vitro, SRB test, HepG2; format: cell-based, human; conditions: mean ± SD of 3–5 independent experiments, n.a. = no activity in concentration of 5, 25, 125, 625 μM
Protocol: as §1, §2, §3, §4, §5, §6

[10] = Homo sapiens, MCF7, 72 hours exposure
[11] = Homo sapiens, MV4-11, 72 hours exposure
[12] = Homo sapiens, A549, 72 hours exposure
[13] = Mus musculus, BALB/3T3, 72 hours exposure
[14] = Homo sapiens, HepG2, 72 hours exposure

| Structure (SMILES) | IC50 [1, 10] [µM] | IC50 ([3]; Homo sapiens, LoVo/DX) [µM] | IC50 ([4]; Homo sapiens, LoVo) [µM] | IC50 [6, 11] [µM] | IC50 [7, 12] [µM] | IC50 [9, 14] [µM] | IC50 values, fold lower than those of free terpene acids 1a, 1b [2] | antiproliferative activity, fold higher than free acids [2] | Resistance index (RI) [5] | IC50 [8, 13] [µM] | IC50 ±SD, A-549 ([7]; 72 hours exposure) | IC50 ±SD, HepG2 ([9]; 72 hours exposure) | IC50 ([1]; 72 hours exposure) [µM] | IC50 [3] [µM] | IC50 [4] [µM] | IC50 ([6]; 72 hours exposure) [µM] | IC50 ([7]; 72 hours exposure) [µM] | IC50 ([8]; 72 hours exposure) [µM] | IC50 ([9]; 72 hours exposure) [µM] |
| --- | --- | --- | --- | --- | --- | --- | --- | --- | --- | --- | --- | --- | --- | --- | --- | --- | --- | --- | --- |
| CCCCCCCCCCCCCCCC(=O)OC[C@H](COP(=O)([O-])OCC[N+](C)(C)C)OC(=O)C=C(C)CCC=C(C)C (mixture of isomers) [Compound 7a, 1'-palmitoyl-2'-(E)-geranoyl-sn-glycero-3'-phosphocholine + 1'-palmitoyl-2'-(Z)-geranoyl-sn-glycero-3'-phosphocholine] | 105 ± 6.51 | 55 ± 2.12 | 51.1 ± 5.1 | 60.9 ± 10.9 | 72.1 ± 14.4 | 200 ± 6.1 | more than 9 fold |  | 1.08 | 186 ± 15.2 |  |  |  |  |  |  |  |  |  |
| N.N.[Cl][Pt][Cl] [Cisplatin, reference compound] |  |  |  |  |  |  |  |  |  |  |  |  | 8.1 ± 0.03 | 3.17 ± 0.2 | 2.56 ± 0.35 | 1.3 ± 0.47 | 8.6 ± 0.7 | 4.2 ± 1.1 | 2.38 ± 0.64 |
| CC(C)=CCCC(C)=CC(=O)O [Compound 1a, Geranic acid, reference compound] | 447 ± 72 | 492 ± 44.5 | 263 ± 32 | 311 ± 96.4 |  |  |  |  | 1.87 |  | did not showed any reduction of cells growth | did not showed any reduction of cells growth |  |  |  |  |  |  |  |
| CC(C)=CCCC(C)CC(=O)O (stereo not drawn) [Compound 1b, citronellic acid, reference compound] | 453 ± 96 | 533 ± 36.7 | 249 ± 26.4 | 254 ± 68 |  |  |  |  |  |  | did not showed any reduction of cells growth | did not showed any reduction of cells growth |  |  |  |  |  |  |  |
| CCCCCCCCCCCCCCCC(=O)OC[C@H](COP(=O)([O-])OCC[N+](C)(C)C)OC(=O)CC(C)CCC=C(C)C (stereo partly drawn) [Compound 7b] | 155 ± 88.3 | 57.1 ± 2.5 | 53.9 ± 2.97 | 45.7 ± 7.63 | 61.2 ± 6 | 103 ± 11.1 | more than 9 fold |  | 1.06 | 112 ± 29.3 |  |  |  |  |  |  |  |  |  |
| CC(C)=CCCC(C)CC(=O)OC[C@@H](O)COP(=O)([O-])OCC[N+](C)(C)C (stereo partly drawn) [Compound 9b] |  | 552 ± 18.5 | 287 ± 35.1 | 382 ± 24.5 |  |  |  |  | 1.93 |  |  |  |  |  |  |  |  |  |  |
| CCCCCCCCCCCCCCCC(=O)O[C@H](COC(=O)CC(C)CCC=C(C)C)COP(=O)([O-])OCC[N+](C)(C)C (stereo partly drawn) [Compound 10b] | 209 ± 25.7 | 57 ± 1.8 | 52.4 ± 3.6 | 57.1 ± 6.37 | 60.2 ± 6.4 | 233 ± 14.7 | more than 9 fold |  | 1.09 | 92.9 ± 15.3 |  |  |  |  |  |  |  |  |  |

Continued by falling IC50 ([3]; Homo sapiens, LoVo/DX), values first:

| IC50 [1, 10] [µM] | IC50 ([3]; Homo sapiens, LoVo/DX) [µM] | IC50 ([4]; Homo sapiens, LoVo) [µM] | IC50 [6, 11] [µM] | IC50 [7, 12] [µM] | IC50 [9, 14] [µM] | IC50 values, fold lower than those of free terpene acids 1a, 1b [2] | Structure (SMILES) | antiproliferative activity, fold higher than free acids [2] | Resistance index (RI) [5] | IC50 [8, 13] [µM] | IC50 ±SD, A-549 ([7]; 72 hours exposure) | IC50 ±SD, HepG2 ([9]; 72 hours exposure) | IC50 ([1]; 72 hours exposure) [µM] | IC50 [3] [µM] | IC50 [4] [µM] | IC50 ([6]; 72 hours exposure) [µM] | IC50 ([7]; 72 hours exposure) [µM] | IC50 ([8]; 72 hours exposure) [µM] | IC50 ([9]; 72 hours exposure) [µM] |
| --- | --- | --- | --- | --- | --- | --- | --- | --- | --- | --- | --- | --- | --- | --- | --- | --- | --- | --- | --- |
| 523 ± 97.2 | 526 ± 89.6 | 246 ± 9.9 | 324 ± 116 |  |  |  | CC(C)=CCCC(C)=CC(=O)OC[C@@H](O)COP(=O)([O-])OCC[N+](C)(C)C (mixture of isomers) [Compound 9a] |  |  |  | not active | not active |  |  |  |  |  |  |  |
| 236 ± 21.3 | 279 ± 10.8 | 248 ± 9.3 | 96.7 ± 33.9 | 274 ± 9.42 | 285 ± 5 |  | CC(C)=CCCC(C)=CC(=O)OC[C@H](COP(=O)([O-])OCC[N+](C)(C)C)OC(=O)C=C(C)CCC=C(C)C (mixture of isomers) [Compound 3a] | 2-3 fold | 1.12 | 273 ± 6.76 |  |  |  |  |  |  |  |  |  |
| 243 ± 45.1 | 251 ± 23.4 | 194 ± 22 | 130 ± 37.8 | 203 ± 47.7 | 280.7 ± 1.8 |  | CC(C)=CCCC(C)CC(=O)OC[C@H](COP(=O)([O-])OCC[N+](C)(C)C)OC(=O)CC(C)CCC=C(C)C (stereo partly drawn) [Compound 3b] | 2-3 fold | 1.3 | 284 ± 6.3 |  |  |  |  |  |  |  |  |  |
| 52.5 ± 5.9 | 51.9 ± 6.7 | 34.6 ± 1.6 | 38.2 ± 9.3 | 49.5 ± 1.88 | 70.3 ± 8.6 | more than 9 fold | CCCCCCCCCCCCCCCC(=O)O[C@H](COC(=O)C=C(C)CCC=C(C)C)COP(=O)([O-])OCC[N+](C)(C)C (mixture of isomers) [Compound 10a] |  | 1.5 | 65.8 ± 3.34 |  |  |  |  |  |  |  |  |  |
|  | 6.53 ± 0.93 | 0.117 ± 0.012 |  |  |  |  | COc1cccc2c1C(=O)c1c(O)c3c(c(O)c1C2=O)C[C@@](O)(C(=O)CO)C[C@@H]3O[C@H]1C[C@H](N)[C@H](O)[C@H](C)O1 [Doxorubicin, reference compound] |  | 55.81 |  |  |  |  |  |  |  |  |  |  |

— article PMC4911001, “Synthesis and Biological Evaluation of Novel Phosphatidylcholine Analogues Containing Monoterpene Acids as Potent Antiproliferative Agents” (PLoS ONE, 2016)
